Calls of active or inactive are those of the source. The calls are words filed in the database; no cut-off is given here.
Tests used:
[1] = Tmax in NOD SCID mouse at 100 mg/kg, po; type: ADME, organism-based; settings: in vivo
[2] = molecular target: Misshapen-like kinase 1 (Homo sapiens) (UniProt Q8N4C8); assay: Inhibition of MINK1 (unknown origin) at 10 uM in presence of ATP at Km concentration
[3] = molecular target: Mitogen-activated protein kinase kinase kinase kinase 3 (Homo sapiens) (UniProt Q8IVH8); assay: Inhibition of MAP4K3 (unknown origin) at 10 uM in presence of ATP at Km concentration
[4] = Genotoxicity in Salmonella typhimurium TA1537 upto 100 uM in absence of S9 fraction by Ames test; type: toxicity; settings: salmonella enterica subsp. enterica serovar typhimurium, s9, 100 µM
[5] = Stability in mouse microsomes assessed as half-life; type: ADME, Microsome
TIME = assay: Inhibition of CXCL8-dependent cell migration in human TIME cells at 0.5 uM incubated for 24 hrs by crystal violet staining based analysis; type: functional
[6] = system: Cisplatin and radiotherapy resistant CAL33RR; assay: Inhibition of CXCL8-dependent cell migration in human Cisplatin and radiotherapy resistant CAL33RR cells at 0.5 uM incubated for 24 hrs by Boyden chamber based crystal violet staining analysis; type: functional
A498 [7] = assay: Effect on VEGFA production in human A498 cells at 1 to 2.5 uM incubated for 48 hrs by ELISA; type: functional, cell-based; settings: dose 1-2.5 µM
[8] = molecular target: Ribosomal protein S6 kinase beta-2 (Homo sapiens) (UniProt Q9UBS0); assay: Inhibition of RPS6KB2 (unknown origin) at 10 uM in presence of ATP at Km concentration
[9] = molecular target: Phosphatidylinositol 4-phosphate 3-kinase C2 domain-containing subunit alpha (Homo sapiens) (UniProt O00443); assay: Inhibition of PIK3C2A (unknown origin) at 10 uM in presence of ATP at Km concentration
[10] = Tmax in NOD SCID mouse at 50 mg/kg, po; type: ADME, organism-based; settings: in vivo
[11] = molecular target: Insulin receptor (Homo sapiens) (UniProt P06213); assay: Inhibition of INSR (unknown origin) at 10 uM in presence of ATP at Km concentration
[12] = Antiproliferative activity against human Sunitinib-resistant 786-R cells incubated for 48 hrs by XTT assay; type: functional, cell-based
[13] = molecular target: Tyrosine-protein kinase JAK1 (Homo sapiens) (UniProt P23458); assay: Inhibition of JAK1 (unknown origin) at 10 uM in presence of ATP at Km concentration
[14] = Stability in human microsomes assessed as half-life; type: ADME, Microsome
[15] = Toxicity in athymic nude mouse xenografted with human 786-0 cells assessed as effect on food consumption at 100 mg/kg, po administered twice daily via gavage for 28 days; type: organism-based; settings: in vivo, 672 h, time 28 day
[16] = Stability in mouse plasma assessed as compound remaining measured after 120 mins; type: ADME, cell-free; settings: read-out: Stability
A498 [17] = assay: Downregulation of CXCL8 mRNA expression in human A498 cells at 1 to 2.5 uM incubated for 48 hrs by qPCR analysis; type: functional, cell-based; settings: dose 1-2.5 µM
A498 [18] = assay: Inhibition of CXCL8-induced cell migration in human A498 cells at 0.5 uM incubated for 24 hrs by crystal violet staining based analysis relative to control; type: functional
[19] = Stability of compound at pH 2 measured after 24 hrs; type: physicochemical; settings: buffer, pH 2, 24 h
[20] = molecular target: Ephrin type-B receptor 2 (Homo sapiens) (UniProt P29323); assay: Inhibition of EPHB2 (unknown origin) at 10 uM in presence of ATP at Km concentration
[21] = Stability of compound in DMSO measured after 24 hrs; type: physicochemical
[22] = molecular target: Calcium/calmodulin-dependent protein kinase type II subunit beta (Homo sapiens) (UniProt Q13554); assay: Inhibition of CAMK2B (unknown origin) at 10 uM in presence of ATP at Km concentration
[23] = molecular target: Serine/threonine-protein kinase PLK1 (Homo sapiens) (UniProt P53350); assay: Inhibition of PLK1 (unknown origin) at 10 uM in presence of ATP at Km concentration
[24] = molecular target: [Pyruvate dehydrogenase (acetyl-transferring)] kinase isozyme 1, mitochondrial (Homo sapiens) (UniProt Q15118); assay: Inhibition of PDK1 (unknown origin) at 10 uM in presence of ATP at Km concentration
[25] = Half-life in NOD SCID mouse at 50 mg/kg, po; type: ADME, organism-based; settings: in vivo
CAL-27 = assay: Antiproliferative activity against human CAL-27 cells incubated for 48 hrs by XTT assay; type: functional, cell-based; settings: CAL-27, 48 h
[26] = molecular target: Inhibitor of nuclear factor kappa-B kinase subunit beta (Homo sapiens) (UniProt O14920); assay: Inhibition of IKBKB (unknown origin) at 10 uM in presence of ATP at Km concentration
[27] = Half-life in NOD SCID mouse at 100 mg/kg, po; type: ADME, organism-based; settings: in vivo
[28] = molecular target: Focal adhesion kinase 1 (Homo sapiens) (UniProt Q05397); assay: Inhibition of PTK2 (unknown origin) at 10 uM in presence of ATP at Km concentration
[29] = molecular target: Mitogen-activated protein kinase 9 (Homo sapiens) (UniProt P45984); assay: Inhibition of MAPK9 (unknown origin) at 10 uM in presence of ATP at Km concentration
[30] = molecular target: Myosin-IIIb (Homo sapiens) (UniProt Q8WXR4); assay: Inhibition of MYO3B (unknown origin) at 10 uM in presence of ATP at Km concentration
[31] = Oral bioavailability in NOD SCID mouse at 100 mg/kg; type: ADME, organism-based; settings: in vivo
[32] = Oral bioavailability in NOD SCID mouse at 200 mg/kg; type: ADME, organism-based; settings: in vivo
[33] = molecular target: Ribosomal protein S6 kinase alpha-4 (Homo sapiens) (UniProt O75676); assay: Inhibition of RPS6KA4 (unknown origin) at 10 uM in presence of ATP at Km concentration
A498 [34] = assay: Inhibition of CXCL8 secretion in human A498 cells at 1 to 2.5 uM incubated for 48 hrs by ELISA; type: functional, cell-based; settings: dose 1-2.5 µM
[35] = molecular target: Tyrosine-protein kinase receptor UFO (Homo sapiens) (UniProt P30530); assay: Inhibition of AXL (unknown origin) at 10 uM in presence of ATP at Km concentration
[36] = Half-life in NOD SCID mouse at 1 mg/kg, iv; type: ADME, organism-based; settings: in vivo
[37] = molecular target: Ephrin type-A receptor 5 (Homo sapiens) (UniProt P54756); assay: Inhibition of EPHA5 (unknown origin) at 10 uM in presence of ATP at Km concentration
[38] = molecular target: cGMP-dependent protein kinase 1 (Homo sapiens) (UniProt Q13976); assay: Inhibition of PRKG1 (unknown origin) at 10 uM in presence of ATP at Km concentration
[39] = molecular target: Mitogen-activated protein kinase kinase kinase kinase 2 (Homo sapiens) (UniProt Q12851); assay: Inhibition of MAP4K2 (unknown origin) at 10 uM in presence of ATP at Km concentration
Mitogen-activated protein kinase kinase kinase kinase 2 (Homo sapiens), sequence (Q12851 whole entry): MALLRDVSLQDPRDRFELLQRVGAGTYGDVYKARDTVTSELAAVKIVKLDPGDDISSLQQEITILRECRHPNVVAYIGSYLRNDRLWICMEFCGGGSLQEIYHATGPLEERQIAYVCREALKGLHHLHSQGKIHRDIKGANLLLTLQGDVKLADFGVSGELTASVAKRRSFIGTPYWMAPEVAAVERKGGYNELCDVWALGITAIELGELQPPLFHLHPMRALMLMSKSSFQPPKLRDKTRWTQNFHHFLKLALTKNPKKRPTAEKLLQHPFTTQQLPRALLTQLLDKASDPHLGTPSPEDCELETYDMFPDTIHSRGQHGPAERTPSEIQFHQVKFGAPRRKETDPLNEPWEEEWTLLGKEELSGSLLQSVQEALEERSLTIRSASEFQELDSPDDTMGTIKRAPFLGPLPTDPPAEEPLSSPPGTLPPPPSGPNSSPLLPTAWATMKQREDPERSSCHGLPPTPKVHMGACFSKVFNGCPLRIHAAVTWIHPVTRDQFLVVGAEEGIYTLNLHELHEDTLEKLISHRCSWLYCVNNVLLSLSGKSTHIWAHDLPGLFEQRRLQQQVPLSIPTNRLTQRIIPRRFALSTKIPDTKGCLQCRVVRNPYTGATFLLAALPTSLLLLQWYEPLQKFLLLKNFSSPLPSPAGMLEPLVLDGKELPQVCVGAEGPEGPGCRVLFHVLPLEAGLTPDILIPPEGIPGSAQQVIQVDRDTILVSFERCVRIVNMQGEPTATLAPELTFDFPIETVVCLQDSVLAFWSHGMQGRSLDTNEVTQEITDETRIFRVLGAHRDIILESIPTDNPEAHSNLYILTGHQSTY

Calcium/calmodulin-dependent protein kinase type II subunit beta (Homo sapiens), sequence (Q13554 whole entry): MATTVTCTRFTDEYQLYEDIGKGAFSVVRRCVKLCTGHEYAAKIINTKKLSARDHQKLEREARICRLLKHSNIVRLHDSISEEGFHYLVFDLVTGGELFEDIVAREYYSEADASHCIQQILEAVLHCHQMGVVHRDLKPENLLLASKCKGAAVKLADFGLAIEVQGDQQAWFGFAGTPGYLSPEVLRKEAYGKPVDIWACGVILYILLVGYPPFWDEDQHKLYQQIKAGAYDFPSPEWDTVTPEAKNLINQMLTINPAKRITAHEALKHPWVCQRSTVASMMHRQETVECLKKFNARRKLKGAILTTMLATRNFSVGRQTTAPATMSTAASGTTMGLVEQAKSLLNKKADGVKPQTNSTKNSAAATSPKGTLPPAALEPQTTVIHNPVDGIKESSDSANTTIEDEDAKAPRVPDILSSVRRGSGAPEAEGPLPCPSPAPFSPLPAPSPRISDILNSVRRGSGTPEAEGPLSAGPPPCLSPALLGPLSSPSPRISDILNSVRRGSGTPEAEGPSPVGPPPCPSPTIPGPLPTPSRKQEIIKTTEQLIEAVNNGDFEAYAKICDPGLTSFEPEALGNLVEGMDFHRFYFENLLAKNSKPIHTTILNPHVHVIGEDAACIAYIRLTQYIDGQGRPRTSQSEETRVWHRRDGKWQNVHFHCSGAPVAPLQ
Mitogen-activated protein kinase 9 (Homo sapiens), sequence (P45984 whole entry, looked up): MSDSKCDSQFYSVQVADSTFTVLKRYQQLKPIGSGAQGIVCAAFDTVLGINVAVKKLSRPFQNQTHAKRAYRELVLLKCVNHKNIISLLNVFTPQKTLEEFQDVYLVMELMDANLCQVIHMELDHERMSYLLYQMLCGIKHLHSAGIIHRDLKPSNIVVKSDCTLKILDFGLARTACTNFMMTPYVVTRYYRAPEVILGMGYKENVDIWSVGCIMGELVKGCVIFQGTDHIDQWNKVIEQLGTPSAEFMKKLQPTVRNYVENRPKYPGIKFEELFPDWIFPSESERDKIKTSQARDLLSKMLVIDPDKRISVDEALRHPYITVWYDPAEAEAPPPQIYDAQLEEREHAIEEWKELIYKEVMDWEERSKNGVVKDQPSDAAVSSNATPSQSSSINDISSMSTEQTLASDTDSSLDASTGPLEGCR
Ribosomal protein S6 kinase beta-2 (Homo sapiens), sequence (Q9UBS0 whole entry, the tested form may be a part): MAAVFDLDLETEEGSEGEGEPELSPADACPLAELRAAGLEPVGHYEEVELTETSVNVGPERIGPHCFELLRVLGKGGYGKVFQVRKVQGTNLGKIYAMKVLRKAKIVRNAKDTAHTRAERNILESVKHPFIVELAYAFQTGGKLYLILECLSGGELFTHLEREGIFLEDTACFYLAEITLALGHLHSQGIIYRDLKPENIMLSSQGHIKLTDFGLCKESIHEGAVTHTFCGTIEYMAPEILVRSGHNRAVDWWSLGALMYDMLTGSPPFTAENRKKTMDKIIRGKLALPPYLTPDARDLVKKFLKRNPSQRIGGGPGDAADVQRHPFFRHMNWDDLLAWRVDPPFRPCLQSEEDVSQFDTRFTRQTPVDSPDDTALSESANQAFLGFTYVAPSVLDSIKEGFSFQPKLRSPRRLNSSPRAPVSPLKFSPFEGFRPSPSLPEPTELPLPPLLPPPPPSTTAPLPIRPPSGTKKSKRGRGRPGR
Inhibitor of nuclear factor kappa-B kinase subunit beta (Homo sapiens), sequence (O14920 whole entry): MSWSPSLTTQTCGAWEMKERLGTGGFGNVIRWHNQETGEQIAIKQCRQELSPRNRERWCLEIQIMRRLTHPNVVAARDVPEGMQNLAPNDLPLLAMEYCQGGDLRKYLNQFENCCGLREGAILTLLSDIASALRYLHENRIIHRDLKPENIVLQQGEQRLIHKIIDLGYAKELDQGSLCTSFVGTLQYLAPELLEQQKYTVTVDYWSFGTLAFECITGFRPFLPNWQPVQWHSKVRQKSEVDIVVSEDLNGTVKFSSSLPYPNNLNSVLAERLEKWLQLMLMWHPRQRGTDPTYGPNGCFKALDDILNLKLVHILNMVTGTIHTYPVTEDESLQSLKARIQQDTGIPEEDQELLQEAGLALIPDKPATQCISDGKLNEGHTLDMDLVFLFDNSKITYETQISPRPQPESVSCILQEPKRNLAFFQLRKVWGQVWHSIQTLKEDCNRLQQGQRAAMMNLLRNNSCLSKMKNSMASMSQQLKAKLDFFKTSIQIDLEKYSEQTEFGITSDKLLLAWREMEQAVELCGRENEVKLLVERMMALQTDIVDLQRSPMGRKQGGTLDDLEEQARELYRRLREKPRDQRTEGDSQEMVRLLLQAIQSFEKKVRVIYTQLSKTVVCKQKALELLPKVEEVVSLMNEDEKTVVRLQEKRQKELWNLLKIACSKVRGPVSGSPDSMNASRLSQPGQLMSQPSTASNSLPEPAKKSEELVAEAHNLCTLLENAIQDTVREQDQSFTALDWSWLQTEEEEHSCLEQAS
cGMP-dependent protein kinase 1 (Homo sapiens), sequence (Q13976 whole entry): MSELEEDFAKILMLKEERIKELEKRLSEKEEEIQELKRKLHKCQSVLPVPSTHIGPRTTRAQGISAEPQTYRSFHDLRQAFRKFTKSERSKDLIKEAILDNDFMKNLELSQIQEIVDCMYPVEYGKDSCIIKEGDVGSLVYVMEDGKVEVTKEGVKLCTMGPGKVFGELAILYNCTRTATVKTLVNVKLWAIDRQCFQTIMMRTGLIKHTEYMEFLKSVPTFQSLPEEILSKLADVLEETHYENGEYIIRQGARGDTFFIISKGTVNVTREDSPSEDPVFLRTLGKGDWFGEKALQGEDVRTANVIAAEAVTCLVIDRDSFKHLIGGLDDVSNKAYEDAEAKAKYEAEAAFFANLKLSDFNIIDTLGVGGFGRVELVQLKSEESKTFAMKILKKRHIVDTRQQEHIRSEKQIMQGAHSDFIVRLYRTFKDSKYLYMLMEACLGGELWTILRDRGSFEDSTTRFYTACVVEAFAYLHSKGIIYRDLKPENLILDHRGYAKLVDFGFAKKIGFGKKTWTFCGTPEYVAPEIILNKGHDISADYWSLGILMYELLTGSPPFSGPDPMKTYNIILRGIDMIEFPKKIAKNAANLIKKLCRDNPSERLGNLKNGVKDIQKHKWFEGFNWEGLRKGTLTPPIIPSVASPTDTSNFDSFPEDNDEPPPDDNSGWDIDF
Tyrosine-protein kinase receptor UFO (Homo sapiens), sequence (P30530 whole entry): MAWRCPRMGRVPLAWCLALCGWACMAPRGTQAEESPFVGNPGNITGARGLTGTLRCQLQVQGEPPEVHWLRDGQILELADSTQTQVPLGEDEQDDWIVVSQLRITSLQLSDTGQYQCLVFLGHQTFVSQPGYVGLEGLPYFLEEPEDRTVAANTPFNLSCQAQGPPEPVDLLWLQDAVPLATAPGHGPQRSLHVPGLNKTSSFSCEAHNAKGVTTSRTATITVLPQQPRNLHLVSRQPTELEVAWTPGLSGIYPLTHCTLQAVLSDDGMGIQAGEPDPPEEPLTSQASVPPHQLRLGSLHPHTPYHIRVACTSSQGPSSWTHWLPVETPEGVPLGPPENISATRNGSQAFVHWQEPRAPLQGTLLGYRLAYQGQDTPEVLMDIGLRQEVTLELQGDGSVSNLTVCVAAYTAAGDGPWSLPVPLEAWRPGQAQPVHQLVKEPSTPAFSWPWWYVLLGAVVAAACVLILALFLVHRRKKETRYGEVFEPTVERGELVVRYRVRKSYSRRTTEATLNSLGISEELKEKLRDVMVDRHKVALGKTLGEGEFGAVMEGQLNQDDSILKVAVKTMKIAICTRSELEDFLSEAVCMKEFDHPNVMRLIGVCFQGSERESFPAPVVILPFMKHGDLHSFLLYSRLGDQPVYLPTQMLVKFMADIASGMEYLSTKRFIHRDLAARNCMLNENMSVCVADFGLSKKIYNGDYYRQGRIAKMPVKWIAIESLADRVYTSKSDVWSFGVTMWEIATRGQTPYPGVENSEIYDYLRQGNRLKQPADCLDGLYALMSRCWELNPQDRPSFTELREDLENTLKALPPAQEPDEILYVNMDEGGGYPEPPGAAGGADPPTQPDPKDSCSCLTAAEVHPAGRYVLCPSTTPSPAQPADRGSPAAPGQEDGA

Tmax [1]: 1.5 h
inhibition [2]: inactive
inhibition [3]: inactive
half-life [5]: > 1 h
inhibition [8]: inactive
inhibition [9]: inactive
Tmax [10]: 1.5 h
inhibition [11]: inactive
inhibition [13]: inactive
half-life [14]: > 1 h
remaining at 2 h [16]: 101%
Stability [19]: Stable
inhibition [20]: inactive
Stability [21]: Stable
inhibition [22]: inactive
inhibition [23]: inactive
inhibition [24]: inactive
half-life [25]: 1.8 h
inhibition [26]: inactive
half-life [27]: 2.2 h
inhibition [28]: inactive
inhibition [29]: inactive
inhibition [30]: inactive
bioavailability [31]: 33%
bioavailability [32]: 22%
inhibition [33]: inactive
inhibition [35]: inactive
half-life [36]: 0.4 h
inhibition [37]: inactive
inhibition [38]: inactive
inhibition [39]: inactive
SMILES: O=C(Nc1cc(Cl)cc(Cl)c1)Nc1nc2ccc([N+](=O)[O-])cc2s1
Activity [4]: Non-Toxic
inhibition (TIME): Active
inhibition [6]: Active
Activity (A498 [7]): inactive
IC50 [12]: 3000 nM
Activity [15]: Non-Toxic
Activity (A498 [17]): Active
inhibition at 0.5 µM (A498 [18]): > 50%
IC50 (CAL-27): 2500 nM
inhibition (A498 [34]): Active
